Experimental data published in US6734003B2, “Phosphodiesterase 10” (Icos Corporation, priority 1998, dated 2004).
Read-outs that look alike come from different tables or passages of the source. Each block holds one compound with its values, some of them ahead of it.

Key:
PDE10 [1] = target: T1, PDE10 (Homo sapiens, UniProt O76083, E580G); experiment: PDE10 inhibition by isozyme-specific PDE inhibitors, cAMP as substrate; assay type: biochemical
T1 construct: The entire open reading frame of the PDE10 cDNA (clone FB94a) was placed into a yeast ADH vector; made in house; host or cells: Saccharomyces cerevisiae strain BJ2-54 (no endogenous PDE activity); 100,000 x g supernatant of the lysate, not purified
T1 sequence (O76083 1-466 isoform O76083-3 E453G): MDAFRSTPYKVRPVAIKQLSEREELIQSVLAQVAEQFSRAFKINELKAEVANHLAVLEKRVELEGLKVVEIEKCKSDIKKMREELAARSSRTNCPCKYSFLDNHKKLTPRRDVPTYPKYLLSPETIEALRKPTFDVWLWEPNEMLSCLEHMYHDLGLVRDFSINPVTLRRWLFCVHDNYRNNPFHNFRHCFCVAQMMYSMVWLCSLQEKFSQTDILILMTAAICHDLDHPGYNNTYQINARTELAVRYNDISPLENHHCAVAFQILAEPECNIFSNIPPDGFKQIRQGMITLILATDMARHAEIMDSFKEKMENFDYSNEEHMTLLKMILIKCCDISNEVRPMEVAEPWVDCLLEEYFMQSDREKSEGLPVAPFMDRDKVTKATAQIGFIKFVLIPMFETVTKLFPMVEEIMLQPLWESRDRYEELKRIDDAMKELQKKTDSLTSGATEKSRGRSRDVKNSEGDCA
Protocol: The entire open reading frame of the PDE10 cDNA (clone FB94a) was placed into a yeast ADH vector including the alcohol dehydrogenase promoter. The construct was built in two steps.
Following transformation into BJ2-54, a yeast strain lacking endogenous PDE activity, a colony was selected, streaked out on SC-leu plates and a single colony carrying the PDE10 construct was chosen for further characterization. Following overnight growth in SC-leu media the culture was diluted 1:250 in fresh SC-leu and grown overnight at 30° C. until it reached a density of 10^7 cells/ml. The cells were collected by centrifugation, washed once with YEP 3% glycerol media, resuspended in YEP containing 3% glycerol, and grown at 30° C. for another 24 hours. The cells were harvested by centrifugation, washed with water, and frozen at −70° C. until use. Prior to use, an aliquot of the yeast extract was analyzed by SDS PAGE. A protein specific to yeast carrying the PDE10 expression construct that migrated on the SDS PAGE gels with the expected mobility (55.5 kDa) was observed by Coomassie blue staining.
Yeast cells (1×10^10) were thawed with 200 μg/ml each of pepstatin A, leupeptin, and aprotinin 1 mM DTT, and 20 μg/ml calpain inhibitors (I and II). Two hundred μl of glass beads (0.5 mm, acid washed) were added, and the mixture was vortexed for eight cycles of 30 seconds each. Samples were cooled for 4.5 minutes at 4° C. between cycles. After lysis, 0.8 ml lysis buffer was added, the lysate separated from the beads, and the lysate centrifuged for 30 minutes at 100,000×g in a Beckman TL-100 tabletop centrifuge. The supernatant was aliquoted, frozen in dry ice/ethanol, and stored at −70° C.
Kinetic assays were performed on a BIOMEK® 1000 programmable robotic station (Beckman Instruments). […] The highest nucleotide concentration contained 1 to 1.5 million Cerenkov counts of ^32P-labeled substrate per assay. […] The enzyme dilution buffer consisted of 25 mM Tris-HCl pH 8.9, 5 μM ZnSO4 5 mM MgCl2, 0.1 mM DTT, 100 mM NaCl and 0.1 mg/ml BSA (Calbiochem; fatty acid free). Activity at each substrate concentration was derived from a linear fit of successive four-fold enzyme dilutions across the plate.
Assays were performed at 30° C. for 15 minutes. After 12 minutes, 5 μl snake venom from Crotalus atrox (15 mg/ml protein) was added to each reaction. Assays were stopped by addition 200 μl of charcoal suspension (25 mg/ml activated charcoal in 0.1 M monobasic potassium phosphate). The plate was centrifuged at 2600 rpm, and 200 μl of each supernatant was transferred into Microbeta® counting plates and counted on a WALLAC Microbeta® by Cerenkov counting. Data were evaluated with a predesigned Microsoft Excel® Spreadsheet, and the kinetic parameters were fitted to a Michaelis-Menton model using the program Table Curve® from Jandel Scientific.

PDE3 = conditions: target family PDE3; Manganiello et al. 1990; cited from earlier work
PDE5 = PDE5 (Homo sapiens, UniProt O76074); conditions: target family PDE5; Coste and Grodin 1995; cited from earlier work
PDE2 = PDE2 (Homo sapiens, UniProt O00408); conditions: target family PDE2; Podzuweit et al. 1995; cited from earlier work
Sequence of PDE2 (O00408 whole entry): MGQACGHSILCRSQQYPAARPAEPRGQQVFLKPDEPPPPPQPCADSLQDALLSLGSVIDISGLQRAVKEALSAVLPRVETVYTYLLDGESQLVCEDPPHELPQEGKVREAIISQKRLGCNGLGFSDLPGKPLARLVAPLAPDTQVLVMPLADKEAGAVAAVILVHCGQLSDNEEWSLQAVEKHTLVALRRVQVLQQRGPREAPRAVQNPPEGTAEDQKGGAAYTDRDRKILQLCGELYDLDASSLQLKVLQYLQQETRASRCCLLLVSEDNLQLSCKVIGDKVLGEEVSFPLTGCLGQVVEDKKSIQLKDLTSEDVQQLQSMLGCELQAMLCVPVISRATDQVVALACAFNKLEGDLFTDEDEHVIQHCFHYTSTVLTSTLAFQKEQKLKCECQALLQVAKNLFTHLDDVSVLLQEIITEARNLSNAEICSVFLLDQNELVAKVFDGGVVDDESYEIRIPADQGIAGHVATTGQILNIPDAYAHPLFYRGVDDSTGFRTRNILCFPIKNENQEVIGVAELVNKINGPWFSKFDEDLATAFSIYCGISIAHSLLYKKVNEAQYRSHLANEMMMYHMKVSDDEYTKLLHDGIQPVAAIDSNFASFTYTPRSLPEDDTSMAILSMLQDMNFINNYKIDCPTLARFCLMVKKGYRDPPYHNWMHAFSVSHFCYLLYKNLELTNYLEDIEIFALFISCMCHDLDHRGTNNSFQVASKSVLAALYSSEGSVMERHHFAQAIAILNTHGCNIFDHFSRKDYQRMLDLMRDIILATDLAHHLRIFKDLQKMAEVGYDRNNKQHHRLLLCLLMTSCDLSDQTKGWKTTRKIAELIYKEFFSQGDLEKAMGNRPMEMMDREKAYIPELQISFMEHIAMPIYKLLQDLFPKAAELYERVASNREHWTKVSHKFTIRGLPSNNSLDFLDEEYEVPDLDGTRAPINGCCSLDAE

PDE4 = conditions: target family PDE4; Bolger et al. 1993; cited from earlier work
PDE10 [2] = target: T1, PDE10; experiment: Kinetic assays of recombinant PDE10 yeast extract (cAMP and cGMP hydrolysis); assay type: biochemical
non-specific = conditions: Coste and Grodin 1995, read-out: Target Family IC50; cited from earlier work
[3] = cAMP as substrate, recombinant PDE10 (clone FB94a) yeast extract

Compound: CN(C(=O)CCCOc1ccc2[nH]c(=O)ccc2c1)C1CCCCC1 [Cilostamide]
IC50 (PDE10 [1]): 100 µM | IC50 (PDE3): 0.04 to 0.9 µM

IC50 (PDE10 [1]; [3]): 9 µM
Compound: CCCOc1ccc(NS(C)(=O)=O)cc1-c1nc2c(c(C)nn2C)c(=O)[nH]1 [DMPPO]
IC50 (PDE5): 0.003 µM

IC50 (PDE10 [1]): 477 µM
Compound: CCCCCCC(C(C)O)n1cnc2c(N)ncnc21 (stereo not drawn) [EHNA, erythro-9-(2-hydroxy-3-nonyl)adenine]
IC50 (PDE2): 0.8 µM

IC50 (PDE10 [1]): 529 µM
Compound: COc1ccc(C2CNC(=O)C2)cc1OC1CCCC1 (stereo not drawn) [Rolipram, rolipram]

hydrolytic activity in the extract (PDE10 [2]; PDE10 yeast extract): 0.035 (±0.01) μmol/min/mg | Km (PDE10 [2]; substrate of PDE10, 30° C., Michaelis-Menton fit): 5 nM
Compound: Nc1nc2c(ncn2[C@@H]2O[C@@H]3COP(=O)(O)O[C@H]3[C@H]2O)c(=O)[nH]1 [cGMP]

IC50 (PDE10 [1]; [3]): 59 µM
Compound: isobutyl methyl xanthine [IBMX]
IC50 (non-specific): 2 to 20 µM
